Measurements from BindingDB's records for doi:10.1016/j.ejmech.2019.112028 (Hunan Agricultural University, 2020).

Tests used:
[1] = Potentiation of amphotericin-induced cytotoxicity against human DU-145 cells over expressing CYP1B1 assessed as reversal of CYP1B1 mediated drug resistance at 5 uM after 48 hrs by MTT assay (Rvb = 43.25 +/- 1.7 nM)
[2] = Potentiation of amphotericin-induced cytotoxicity against human DU-145 cells over expressing CYP1B1 assessed as reversal of CYP1B1 mediated drug resistance at 1 uM after 48 hrs by MTT assay (Rvb = 43.25 +/- 1.7 nM)

Row | Compound | IC50 [1] [nM] | IC50 [2] [nM]
1 | COc1ccc(OC)c2c1c(OC)cc1c(=O)cc(-c3ccc(-c4cn(CCCCCCCCOc5cccc6c5C(=O)N(C5CCC(=O)NC5=O)C6=O)nn4)cc3)oc12 (centres undefined) | 37 | 
2 | COc1ccc(OC)c2c1c(OC)cc1c(=O)cc(-c3ccc(-c4cn(CCCCCCOc5cccc6c5C(=O)N(C5CCC(=O)NC5=O)C6=O)nn4)cc3)oc12 (centres undefined) | 7 | 
3 | COc1ccc(OC)c2c1c(OC)cc1c(=O)cc(-c3ccc(-c4cn(CCOc5cccc6c5C(=O)N(C5CCC(=O)NC5=O)C6=O)nn4)cc3)oc12 (centres undefined) | 24 | 
4 | COc1ccc(OC)c2c1c(OC)cc1c(=O)cc(-c3ccc(-c4cn(CCCCCOc5cccc6c5C(=O)N(C5CCC(=O)NC5=O)C6=O)nn4)cc3)oc12 (centres undefined) |  | 28
